Measurements published in EPA's CvTdb concentration-time database.

Experiments:
[1] = tested on: Rat; experiment: concentration in liver after dosing; conditions: 12 h; dosed: Potassium Perfluorobutane Sulfonate; 20 mg/kg; oral; Male; Harlan Sprague Dawley
[2] = tested on: Rat; experiment: concentration in brain after dosing; conditions: 1 h; dosed: Potassium Perfluorobutane Sulfonate; 20 mg/kg; oral; Male; Harlan Sprague Dawley
[3] = tested on: Rat; experiment: concentration in brain after dosing; conditions: 3 h; dosed: Potassium Perfluorobutane Sulfonate; 20 mg/kg; oral; Male; Harlan Sprague Dawley
[4] = tested on: Rat; experiment: concentration in plasma after dosing; conditions: dosed: Potassium Perfluorobutane Sulfonate, 20 mg/kg, oral, Male, Harlan Sprague Dawley
[5] = tested on: Rat; experiment: concentration in plasma after dosing; conditions: dosed: Potassium Perfluorobutane Sulfonate, 4 mg/kg, iv, Male, F344
[6] = tested on: Rat; experiment: concentration in liver after dosing; conditions: 12 h; dosed: Potassium Perfluorobutane Sulfonate; 20 mg/kg; oral; Male; Harlan Sprague Dawley; remark: listed apart in the source
[7] = tested on: Rat; experiment: concentration in kidney after dosing; conditions: 6 h; dosed: Potassium Perfluorobutane Sulfonate; 20 mg/kg; oral; Female; Harlan Sprague Dawley
[8] = tested on: Rat; experiment: concentration in plasma after dosing; conditions: dosed: Potassium Perfluorobutane Sulfonate, 4 mg/kg, oral, Male, Harlan Sprague Dawley
[9] = tested on: Rat; experiment: concentration in liver after dosing; conditions: 0.5 h; dosed: Potassium Perfluorobutane Sulfonate; 20 mg/kg; oral; Female; Harlan Sprague Dawley
[10] = tested on: Rat; experiment: concentration in plasma after dosing; conditions: 0.75 h; dosed: Potassium Perfluorobutane Sulfonate; 4 mg/kg; iv; Female; Harlan Sprague-Dawley
[11] = tested on: Rat; experiment: concentration in liver after dosing; conditions: 0.5 h; dosed: Potassium Perfluorobutane Sulfonate; 20 mg/kg; oral; Female; Harlan Sprague Dawley; remark: listed apart in the source
[12] = tested on: Rat; experiment: concentration in plasma after dosing; conditions: dosed: 678-39-7, 12 mg/kg, iv, Male, F344
[13] = tested on: Rat; experiment: concentration in liver after dosing; conditions: 6 h; dosed: Perfluorooctanoic acid; 12 mg/kg; oral; Male; Harlan Sprague Dawley
[14] = tested on: Rat; experiment: concentration in kidney after dosing; conditions: 24 h; dosed: Perfluorooctanoic acid; 80 mg/kg; oral; Female; Harlan Sprague Dawley
[15] = tested on: Rat; experiment: concentration in plasma after dosing; conditions: dosed: 678-39-7, 12 mg/kg, iv, Male, F344; remark: listed apart in the source
[16] = tested on: Rat; experiment: concentration in plasma after dosing; conditions: dosed: 678-39-7, 40 mg/kg, iv, Male, F344
[17] = tested on: Rat; experiment: concentration in brain after dosing; conditions: 6 h; dosed: Perfluorooctanoic acid; 80 mg/kg; oral; Female; Harlan Sprague Dawley
[18] = tested on: Rat; experiment: concentration in brain after dosing; conditions: 12 h; dosed: Perfluorooctanoic acid; 80 mg/kg; oral; Female; Harlan Sprague Dawley
[19] = tested on: Rat; experiment: concentration in plasma after dosing; conditions: dosed: 678-39-7, 40 mg/kg, iv, Female, Harlan Sprague-Dawley
[20] = tested on: Rat; experiment: concentration in kidney after dosing; conditions: 6 h; dosed: Fluorotelomer alcohol 8+2; 80 mg/kg; oral; Female; Harlan Sprague Dawley
[21] = tested on: Rat; experiment: concentration in liver after dosing; conditions: 3 h; dosed: Perfluorooctanoic acid; 12 mg/kg; oral; Male; Harlan Sprague Dawley
[22] = tested on: Rat; experiment: concentration in plasma after dosing; conditions: dosed: 2-Hydroxy-4-methoxybenzophenone, 250 mg/kg, oral, Male, F344
[23] = tested on: Rat; experiment: concentration in plasma after dosing; conditions: dosed: 2-Hydroxy-4-methoxybenzophenone, 8 mg/kg, iv, Female, F344
[24] = tested on: Rat; experiment: concentration in plasma after dosing; conditions: dosed: 2-Hydroxy-4-methoxybenzophenone, 500 mg/kg, oral, Female, F344
[25] = tested on: Mouse; experiment: concentration in plasma after dosing; conditions: 2.5 min; dosed: 2-Hydroxy-4-methoxybenzophenone; 250 mg/kg; oral; Male; B6C3F1
[26] = tested on: Rat; experiment: concentration in plasma after dosing; conditions: dosed: 2-Hydroxy-4-methoxybenzophenone, 500 mg/kg, oral, Female, F344; remark: listed apart in the source
[27] = tested on: Rat; experiment: concentration in plasma after dosing; conditions: 0.25 h; dosed: 2-Hydroxy-4-methoxybenzophenone; 500 mg/kg; oral; Male; F344
[28] = tested on: Mouse; experiment: concentration in plasma after dosing; conditions: 2 h; dosed: 2-Hydroxy-4-methoxybenzophenone; 250 mg/kg; oral; Male; B6C3F1
[29] = tested on: Rat; experiment: concentration in plasma after dosing; conditions: dosed: 2-Hydroxy-4-methoxybenzophenone, 100 mg/kg, oral, Female, F344
[30] = tested on: Rat; experiment: concentration in plasma after dosing; conditions: dosed: Nitrite, 40 mg/kg, oral, Female, F344
[31] = tested on: Rat; experiment: concentration in plasma after dosing; conditions: dosed: Nitrite, 80 mg/kg, oral, Female, F344
[32] = tested on: Rat; experiment: concentration in plasma after dosing; conditions: dosed: Nitrite, 20 mg/kg, iv, Male, F344
[33] = tested on: Rat; experiment: concentration in plasma after dosing; conditions: dosed: Nitrite, 40 mg/kg, oral, Female, F344; remark: listed apart in the source
[34] = tested on: Rat; experiment: concentration in plasma after dosing; conditions: 5 min; dosed: Nitrite; 40 mg/kg; oral; Female; F344
[35] = tested on: Rat; experiment: concentration in plasma after dosing; conditions: 0.5 h; dosed: Nitrite; 20 mg/kg; iv; Male; F344
[36] = tested on: rat; conditions: dosed: benzo[a]pyrene, 1 mg/kg, iv, male, Sprague Dawley

O=S(=O)([O-])C(F)(F)C(F)(F)C(F)(F)C(F)(F)F.[K+] [Potassium Perfluorobutane Sulfonate]
concentration in liver [1]: 10100 ng/g | concentration in brain [2]: 1030 ng/g | concentration in brain [3]: 754 ng/g | concentration in plasma ([4]; 0.25 h): 30200 ng/mL | concentration in plasma ([4]; 24 h): 1070 ng/mL | concentration in plasma ([5]; 0.25 h): 26000 ng/mL | concentration in plasma ([5]; 6 h): 7280 ng/mL | concentration in liver [6]: 9420 ng/g | concentration in kidney [7]: 3360 ng/g | concentration in plasma ([8]; 0.25 h): 3580 ng/mL | concentration in plasma ([8]; 6 h): 11600 ng/mL | concentration in liver [9]: 51300 ng/g | concentration in plasma [10]: 6450 ng/mL | concentration in liver [11]: 48000 ng/g

O=C(O)C(F)(F)C(F)(F)C(F)(F)C(F)(F)C(F)(F)C(F)(F)C(F)(F)F [Perfluorooctanoic acid]
concentration in plasma ([12]; 0.75 h): 295 ng/mL | concentration in plasma ([12]; 12 h): 505 ng/mL | concentration in liver [13]: 57200 ng/g | concentration in kidney [14]: 12300 ng/g | concentration in plasma ([15]; 1 h): 378 ng/mL | concentration in plasma ([15]; 6 h): 480 ng/mL | concentration in plasma ([16]; 0.25 h): 264000 ng/mL | concentration in plasma ([16]; 6 h): 108000 ng/mL | concentration in brain [17]: 3230 ng/g | concentration in brain [18]: 1000 ng/g | concentration in plasma ([19]; 0.75 h): 1470 ng/mL | concentration in plasma ([19]; 12 h): 372 ng/mL | concentration in kidney [20]: 2040 ng/g | concentration in liver [21]: 41100 ng/g

COc1ccc(C(=O)c2ccccc2)c(O)c1 [2-Hydroxy-4-methoxybenzophenone]
concentration in plasma ([22]; 10 min): 357 ng/mL | concentration in plasma ([22]; 3 h): 91.3 ng/mL | concentration in plasma ([23]; 0.25 h): 1800 ng/mL | concentration in plasma ([23]; 4 h): 38.7 ng/mL | concentration in plasma ([24]; 2.5 min): 47.3 ng/mL | concentration in plasma ([24]; 4 h): 240 ng/mL | concentration in plasma [25]: 22 ng/mL | concentration in plasma ([26]; 10 min): 52.4 ng/mL | concentration in plasma ([26]; 10 h): 27.5 ng/mL | concentration in plasma [27]: 403 ng/mL | concentration in plasma [28]: 34 ng/mL | concentration in plasma ([29]; 10 min): 27.8 ng/mL | concentration in plasma ([29]; 3 h): 13.6 ng/mL

O=N[O-] [Nitrite]
concentration in plasma ([30]; 1 h): 8300 ng/mL | concentration in plasma ([30]; 2 h): 3600 ng/mL | concentration in plasma ([31]; 0.5 h): 20500 ng/mL | concentration in plasma ([31]; 4 h): 4900 ng/mL | concentration in plasma ([32]; 2 min): 21300 ng/mL | concentration in plasma ([32]; 0.75 h): 2300 ng/mL | concentration in plasma ([33]; 1 h): 4300 ng/mL | concentration in plasma ([33]; 2 h): 1800 ng/mL | concentration in plasma [34]: 8500 ng/mL | concentration in plasma [35]: 8100 ng/mL

c1ccc2c(c1)cc1ccc3cccc4ccc2c1c34 [benzo[a]pyrene]
amount in bile after dosing ([36]; 1.003 h): 7.16 ng | amount in bile after dosing ([36]; 3.009 h): 20.1 ng | amount in bile after dosing ([36]; 5.994 h): 22.9 ng | amount in bile after dosing ([36]; 24 h): 26.4 ng
